Our source for the IC50 values is US12516056B2, “Compounds for inhibition of janus kinase 1” (MANKIND PHARMA LTD., priority 2019, dated 2026).

In one test the target is T1, Recombinant TYK2 (Homo sapiens, UniProt P29597).
T1 construct: purchased Carna Biosciences
Nature of the test: JAK biochemical assay (LANCE Ultra TR-FRET), TYK2. Particulars: recombinant TYK2, TR-FRET; read-out: Biochemical Assay (μM) TYK2. The procedure, abridged: (§1)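 TR-FRET read-out of ULight substrate phosphorylation by recombinant kinase gives % inhibition relative to vehicle. The assay buffer is HEPES pH 7.5 with EGTA, MgCl2, DTT and Tween-20.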
(In TR-FRET formats the signal depends on donor and acceptor labels being close together.)

The target in the next test is T2, Recombinant JAK3 (Homo sapiens, UniProt P52333).
T2 construct: purchased Carna Biosciences
T2 sequence (P52333 1-1124): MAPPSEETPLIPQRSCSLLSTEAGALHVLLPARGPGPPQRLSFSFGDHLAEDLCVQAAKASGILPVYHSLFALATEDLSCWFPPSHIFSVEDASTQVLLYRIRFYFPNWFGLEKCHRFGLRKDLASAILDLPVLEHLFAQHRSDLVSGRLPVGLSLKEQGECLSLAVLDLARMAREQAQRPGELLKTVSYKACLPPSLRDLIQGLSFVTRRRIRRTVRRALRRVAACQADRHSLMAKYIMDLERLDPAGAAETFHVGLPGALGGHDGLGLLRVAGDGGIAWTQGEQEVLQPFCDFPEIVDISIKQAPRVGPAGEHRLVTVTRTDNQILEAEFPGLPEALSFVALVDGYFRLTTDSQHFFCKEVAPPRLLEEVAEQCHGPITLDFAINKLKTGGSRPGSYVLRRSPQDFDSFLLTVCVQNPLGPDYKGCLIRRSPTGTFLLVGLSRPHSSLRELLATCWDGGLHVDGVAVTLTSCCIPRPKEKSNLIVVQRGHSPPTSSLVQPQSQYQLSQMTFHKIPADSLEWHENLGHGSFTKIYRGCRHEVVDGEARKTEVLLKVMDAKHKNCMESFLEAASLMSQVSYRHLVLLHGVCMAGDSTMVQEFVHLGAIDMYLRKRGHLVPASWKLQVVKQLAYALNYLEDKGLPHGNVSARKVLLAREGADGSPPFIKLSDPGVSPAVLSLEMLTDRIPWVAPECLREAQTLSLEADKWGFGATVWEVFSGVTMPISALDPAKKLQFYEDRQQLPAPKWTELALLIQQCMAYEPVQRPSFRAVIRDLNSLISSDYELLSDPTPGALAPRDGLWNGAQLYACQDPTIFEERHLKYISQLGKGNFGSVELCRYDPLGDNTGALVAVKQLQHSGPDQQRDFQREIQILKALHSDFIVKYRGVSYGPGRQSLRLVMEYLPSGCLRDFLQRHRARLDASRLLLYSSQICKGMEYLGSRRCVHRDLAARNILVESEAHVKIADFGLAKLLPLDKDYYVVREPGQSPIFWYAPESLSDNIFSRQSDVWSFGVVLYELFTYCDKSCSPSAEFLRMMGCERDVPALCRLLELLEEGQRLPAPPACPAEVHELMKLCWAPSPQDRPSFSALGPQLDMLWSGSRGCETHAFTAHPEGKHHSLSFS
Description: JAK biochemical assay (LANCE Ultra TR-FRET), JAK3. Particulars: recombinant JAK3, TR-FRET; read-out: Biochemical Assay (μM) JAK3. The procedure, abridged:
as §1

Another test concerns the target T3, Recombinant JAK1 (Homo sapiens, UniProt P23458).
T3 construct: purchased Carna Biosciences
Description: JAK biochemical assay (LANCE Ultra TR-FRET), JAK1. Particulars: recombinant JAK1, TR-FRET; read-out: Biochemical Assay (μM) JAK1. The procedure, abridged: as §1

In the next test the target is T4, Recombinant JAK2 (Homo sapiens, UniProt O60674).
T4 construct: purchased Carna Biosciences
Description: JAK biochemical assay (LANCE Ultra TR-FRET), JAK2. Particulars: recombinant JAK2, TR-FRET; read-out: Biochemical Assay (μM) JAK2. The method, boiled down:
as §1

T1 sequence (P29597 whole entry): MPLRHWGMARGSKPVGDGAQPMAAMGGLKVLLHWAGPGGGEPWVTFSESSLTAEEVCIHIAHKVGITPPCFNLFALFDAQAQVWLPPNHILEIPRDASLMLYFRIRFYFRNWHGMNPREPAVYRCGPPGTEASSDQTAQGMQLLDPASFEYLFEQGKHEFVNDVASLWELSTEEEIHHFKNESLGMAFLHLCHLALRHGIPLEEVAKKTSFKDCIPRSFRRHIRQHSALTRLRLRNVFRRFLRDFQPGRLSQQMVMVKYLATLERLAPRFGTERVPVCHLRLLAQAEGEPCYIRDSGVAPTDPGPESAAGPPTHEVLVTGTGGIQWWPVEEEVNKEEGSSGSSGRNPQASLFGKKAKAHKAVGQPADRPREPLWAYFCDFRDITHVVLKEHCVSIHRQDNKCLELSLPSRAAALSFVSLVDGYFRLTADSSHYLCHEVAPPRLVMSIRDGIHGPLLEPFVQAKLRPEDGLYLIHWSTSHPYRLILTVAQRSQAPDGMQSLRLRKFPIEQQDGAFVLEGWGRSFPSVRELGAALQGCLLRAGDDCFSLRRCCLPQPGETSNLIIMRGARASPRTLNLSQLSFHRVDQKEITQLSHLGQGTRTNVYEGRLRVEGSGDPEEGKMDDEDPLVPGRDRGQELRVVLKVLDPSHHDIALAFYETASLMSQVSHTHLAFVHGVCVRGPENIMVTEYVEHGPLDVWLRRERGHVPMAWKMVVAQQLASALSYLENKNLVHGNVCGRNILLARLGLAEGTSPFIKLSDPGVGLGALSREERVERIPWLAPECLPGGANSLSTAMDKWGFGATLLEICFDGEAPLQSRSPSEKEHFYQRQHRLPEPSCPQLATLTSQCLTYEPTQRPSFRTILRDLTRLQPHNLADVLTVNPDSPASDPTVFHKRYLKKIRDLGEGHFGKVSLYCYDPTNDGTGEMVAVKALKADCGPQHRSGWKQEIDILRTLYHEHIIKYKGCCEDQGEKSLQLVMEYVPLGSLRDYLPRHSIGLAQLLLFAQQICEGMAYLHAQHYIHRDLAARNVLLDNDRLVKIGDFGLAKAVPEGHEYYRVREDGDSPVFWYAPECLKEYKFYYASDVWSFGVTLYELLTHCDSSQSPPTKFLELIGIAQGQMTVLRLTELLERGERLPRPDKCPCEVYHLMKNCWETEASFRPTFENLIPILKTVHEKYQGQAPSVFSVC
T3 sequence (P23458 whole entry): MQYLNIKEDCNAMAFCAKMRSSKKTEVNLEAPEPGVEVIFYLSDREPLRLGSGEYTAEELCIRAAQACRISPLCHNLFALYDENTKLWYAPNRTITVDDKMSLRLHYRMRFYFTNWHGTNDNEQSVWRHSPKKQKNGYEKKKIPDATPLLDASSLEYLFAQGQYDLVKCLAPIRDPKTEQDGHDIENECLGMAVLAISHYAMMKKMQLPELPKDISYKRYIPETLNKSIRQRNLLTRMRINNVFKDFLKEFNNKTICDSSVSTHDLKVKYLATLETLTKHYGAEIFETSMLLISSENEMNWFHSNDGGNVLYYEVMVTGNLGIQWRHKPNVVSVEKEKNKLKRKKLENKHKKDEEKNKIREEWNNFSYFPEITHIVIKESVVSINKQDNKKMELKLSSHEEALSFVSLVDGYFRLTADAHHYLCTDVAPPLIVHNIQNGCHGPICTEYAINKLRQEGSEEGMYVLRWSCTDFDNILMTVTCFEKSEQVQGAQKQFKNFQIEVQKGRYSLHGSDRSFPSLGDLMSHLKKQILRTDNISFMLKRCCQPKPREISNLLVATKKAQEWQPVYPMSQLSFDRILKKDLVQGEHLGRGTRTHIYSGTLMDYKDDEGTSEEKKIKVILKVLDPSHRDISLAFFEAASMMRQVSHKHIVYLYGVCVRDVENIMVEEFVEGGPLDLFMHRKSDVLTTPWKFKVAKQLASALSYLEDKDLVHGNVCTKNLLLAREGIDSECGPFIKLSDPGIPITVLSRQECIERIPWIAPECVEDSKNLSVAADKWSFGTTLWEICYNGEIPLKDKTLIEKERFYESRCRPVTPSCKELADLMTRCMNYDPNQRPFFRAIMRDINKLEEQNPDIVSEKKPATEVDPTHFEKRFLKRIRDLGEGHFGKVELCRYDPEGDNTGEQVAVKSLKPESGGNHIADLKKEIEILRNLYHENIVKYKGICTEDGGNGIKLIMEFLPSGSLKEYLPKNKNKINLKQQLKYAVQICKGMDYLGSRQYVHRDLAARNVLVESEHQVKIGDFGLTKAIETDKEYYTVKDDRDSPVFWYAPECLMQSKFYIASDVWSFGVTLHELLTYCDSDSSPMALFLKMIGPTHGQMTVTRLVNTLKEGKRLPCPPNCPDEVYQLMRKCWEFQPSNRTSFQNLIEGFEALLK
T4 sequence (O60674 whole entry): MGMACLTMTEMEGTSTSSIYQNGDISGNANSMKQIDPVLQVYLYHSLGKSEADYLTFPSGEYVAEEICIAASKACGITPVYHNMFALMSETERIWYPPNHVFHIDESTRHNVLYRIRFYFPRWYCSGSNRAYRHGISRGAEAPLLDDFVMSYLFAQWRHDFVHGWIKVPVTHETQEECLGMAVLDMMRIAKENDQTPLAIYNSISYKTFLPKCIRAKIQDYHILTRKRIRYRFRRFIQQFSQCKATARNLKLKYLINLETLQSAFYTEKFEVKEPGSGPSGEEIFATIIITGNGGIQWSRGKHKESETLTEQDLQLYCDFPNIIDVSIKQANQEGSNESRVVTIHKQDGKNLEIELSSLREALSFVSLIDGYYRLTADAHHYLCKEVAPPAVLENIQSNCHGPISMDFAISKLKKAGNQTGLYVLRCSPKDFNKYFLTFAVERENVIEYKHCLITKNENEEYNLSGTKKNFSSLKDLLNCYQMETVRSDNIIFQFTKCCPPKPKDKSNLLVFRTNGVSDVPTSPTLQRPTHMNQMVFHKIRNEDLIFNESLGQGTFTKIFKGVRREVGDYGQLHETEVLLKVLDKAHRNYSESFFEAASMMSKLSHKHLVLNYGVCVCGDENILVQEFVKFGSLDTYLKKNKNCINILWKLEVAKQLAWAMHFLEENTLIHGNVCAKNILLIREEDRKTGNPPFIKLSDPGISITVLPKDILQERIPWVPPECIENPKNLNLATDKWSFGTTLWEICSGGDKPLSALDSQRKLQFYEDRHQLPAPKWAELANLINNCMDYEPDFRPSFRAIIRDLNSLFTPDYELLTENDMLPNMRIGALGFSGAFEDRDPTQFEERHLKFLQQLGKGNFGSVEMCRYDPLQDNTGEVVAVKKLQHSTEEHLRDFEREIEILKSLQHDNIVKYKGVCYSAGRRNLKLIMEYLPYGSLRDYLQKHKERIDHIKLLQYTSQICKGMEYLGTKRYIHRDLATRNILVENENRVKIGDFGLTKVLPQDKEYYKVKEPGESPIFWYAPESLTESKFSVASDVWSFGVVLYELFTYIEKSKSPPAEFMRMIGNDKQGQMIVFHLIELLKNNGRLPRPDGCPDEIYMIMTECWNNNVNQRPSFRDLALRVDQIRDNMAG

Consider `COCCC(c1ccc(-n2cc(-c3ccnc4[nH]cnc34)cn2)nc1)C(F)(F)F` (stereo not shown) [Example 1155, 7-(1-(5-(1,1,1-trifluoro-4-methoxybutan-2-yl)pyridin-2-yl)-1H-pyrazol-4-yl)-3H-imidazo[4,5-b]pyridine], for which the IC50 is more than 1 µM on Recombinant TYK2, more than 0.1 µM on Recombinant JAK3, more than 0.1 µM at Recombinant JAK1 and more than 0.5 µM on Recombinant JAK2.

For `CCCS(=O)(=O)NC1CCN(C(=O)n2cc(-c3ccnc4[nH]cnc34)cn2)C1` (stereo not shown) [Example 1069, N-(1-(4-(3H-imidazo[4,5-b]pyridin-7-yl)-1H-pyrazole-1-carbonyl)pyrrolidin-3-yl)propane-1-sulfonamide], the IC50 at Recombinant TYK2 was more than 1 µM; at Recombinant JAK3 it was more than 0.5 µM; on Recombinant JAK1 it was more than 10 µM; on Recombinant JAK2, more than 1 µM.

On to `COc1cc(-n2cc(-c3ccnc4[nH]cnc34)cn2)ccc1CC#N` [Example 1105, 2-(4-(4-(3H-imidazo[4,5-b]pyridin-7-yl)-1H-pyrazol-1-yl)-2-methoxyphenyl)acetonitrile], for which the IC50 was more than 10 µM on Recombinant TYK2, more than 0.5 µM at Recombinant JAK3, more than 1 µM at Recombinant JAK1 and more than 0.5 µM at Recombinant JAK2.

Take `O=C(Nc1ccc(-c2ccnc3[nH]c(=O)[nH]c23)cc1)N1CCOCC1` [Example 1008, N-(4-(2,3-dihydro-2-oxo-1H-imidazo[4,5-b]pyridin-7-yl)phenyl)morpholine-4-carboxamide]: the IC50 was more than 10 µM on Recombinant TYK2, more than 1 µM on Recombinant JAK3, more than 1 µM at Recombinant JAK1 and more than 1 µM at Recombinant JAK2.

Consider `N#Cc1ccc(-n2cc(-c3ccnc4[nH]cnc34)cn2)nc1` [Example 1079, 6-(4-(3H-imidazo[4,5-b]pyridin-7-yl)-1H-pyrazol-1-yl)pyridine-3-carbonitrile], for which the IC50 at Recombinant TYK2 was more than 10 µM; at Recombinant JAK3 it was more than 1 µM; on Recombinant JAK1 it was more than 10 µM; on Recombinant JAK2, more than 1 µM.

With `O=C(NC1CCS(=O)(=O)CC1)N1CCN(c2ccnc3[nH]c(=O)[nH]c23)CC1` [Example 1020, N-(1,1-dioxidotetrahydro-2H-thiopyran-4-yl)-4-(2-oxo-2,3-dihydro-1H-imidazo[4,5-b]pyridin-7-yl)piperazine-1-carboxamide], the IC50 on Recombinant TYK2, at Recombinant JAK3, at Recombinant JAK1 and on Recombinant JAK2 was more than 10 µM in each case.

As to `N#CC1CN(C(=O)c2ccc(-n3cc(-c4ccnc5[nH]cnc45)cn3)nc2)C1` [Example 1089, 1-(6-(4-(3H-imidazo[4,5-b]pyridin-7-yl)-1H-pyrazol-1-yl)nicotinoyl)azetidine-3-carbonitrile], the IC50 on Recombinant TYK2 is more than 1 µM; on Recombinant JAK3, more than 1 µM; at Recombinant JAK1, more than 0.5 µM; at Recombinant JAK2, more than 0.5 µM.

On to `O=C(Cc1ccc(-n2cc(-c3ccnc4[nH]cnc34)cn2)nc1)NCC(F)(F)F` [Example 1092, 2-(6-(4-(3H-imidazo[4,5-b]pyridin-7-yl)-1H-pyrazol-1-yl)pyridin-3-yl)-N-(2,2,2-trifluoroethyl)acetamide], for which the IC50 on Recombinant TYK2, at Recombinant JAK3, at Recombinant JAK1 and at Recombinant JAK2 was more than 1 µM in each case.

For `CS(=O)(=O)COC(c1ccc(-n2cc(-c3ccnc4[nH]cnc34)cn2)nc1)C(F)(F)F` (stereo not shown) [Example 1140, 7-(1-(5-(1-((methylsulfonyl)methoxy)-2,2,2-trifluoroethyl)pyridin-2-yl)-1H-pyrazol-4-yl)-3H-imidazo[4,5-b]pyridine], the IC50 at Recombinant TYK2 was more than 1 µM; on Recombinant JAK3, less than 0.1 µM; on Recombinant JAK1, less than 0.1 µM; on Recombinant JAK2, less than 0.1 µM.

With `CCOc1nc2c(-c3cnn(C(=O)NCC(F)(F)F)c3)ccnc2[nH]1` [Example 1095, 4-(2-ethoxy-3H-imidazo[4,5-b]pyridin-7-yl)-N-(2,2,2-trifluoroethyl)-1H-pyrazole-1-carboxamide], the IC50 on Recombinant TYK2 was more than 10 µM; on Recombinant JAK3 it was less than 1 µM; at Recombinant JAK1 it was less than 1 µM; on Recombinant JAK2 it was less than 1 µM.
